# Measurements published in patent US20040018941A1, “Fused-benzene derivatives of thiouracil, herbicidal and desiccant compositions contaning them” (ISHIHARA SANGYO KAISHA, LTD., priority 2002, published 2004).
# Key:
# Format in all cases: in vivo
# Conditions in all cases: rating 0-100 (0 no damage, 100 complete death), 14 days after application
# [1] = test system: lambsquarters (Chenopodium album, CHEAL); assay: Pre-emerge herbicidal activity, greenhouse screen, CHEAL
# Source text: (§1) A standard greenhouse herbicide activity screening system was used to evaluate the herbicidal efficacy and crop safety of these test compounds. Seven broadleaf weed species including redroot pigweed (Amaranthus retroflexus, AMARE), velvetleaf (Abutilon theophrasti, ABUTH), sicklepod (Cassia obtusifolia, CASOB), ivyleaf morningglory (Ipomoea hederacea, IPOHE), lambsquarters (Chenopodium album, CHEAL), common ragweed (Ambrosia artemisiifolia L., AMBEL), and cocklebur (Xanthium strumarium, XANST) were used as test species. Four grass weed species including green foxtail (Setaria viridis, SETVI), barnyardgrass (Echinochloa crus-galli, ECHCG), johnsongrass (Sorghum halepense, SORHA), and large crabgrass (Digitaria sanguinalis, DIGSA) were also used. In addition, three crop species, field corn (Zea mays L., var. Dekalb 527, CORN), soybean (Glycine max L., var. Pella 86, SOY), and upland rice (Oryza sp., var. Tebonnet, RICE) were included.
# (§2) All plants were grown in 10 cm square plastic pots which were filled with a sandy loam soil mix. For pre-emerge tests, seeds were planted one day prior to application of the test compounds. For post-emerge tests, seeds were planted 8-21 days prior to the test to allow emergence and good foliage development prior to application of the test substances. At the time of the post-emerge application, plants of all species were usually at the 2-3 leaf stage of development.
# (§3) All test compounds were dissolved in acetone and applied to the test units in a volume of 187 l/ha. Test materials were applied at rates ranging from 15 g ai/ha to 1000 g ai/ha using a track sprayer equipped with a TJ8001 E even flow flat fan spray nozzle. Plants were arranged on a shelf so that the top of the canopy (post-emerge) or top of the soil surface (pre-emerge) was 40-45 cm below the nozzle. Pressurized air was used to force the test solution through the nozzle as it was mechanically advanced over the top of all test plants/pots. This application simulates a typical commercial field herbicide application.
# (§4) In the post-emerge test, a commercial non-ionic surfactant was also included (0.25% v/v) to enhance wetting of the leaf surfaces of target plants. Immediately after application, test units of the pre-emerge applications were watered at the soil surface to incorporate the test materials.
# (§5) At 14 days after application of the test materials, phytotoxicity ratings were recorded. A rating scale of 0-100 was used as previously described in Research Methods in Weed Science, 2nd edition, B. Truelove, Ed., Southern Weed Science Society, Auburn University, Auburn, Ala., 1977. Briefly, “0” corresponds to no damage and “100” corresponds to complete death of all plants in the test unit. This scale was used both to determine efficacy against weed species and damage to crop species. Herbicide activity data for various compounds of this invention, which are shown by compound No. in Tables 1-7, are shown in Tables 8 and 9.
# [2] = test system: johnsongrass (Sorghum halepense, SORHA); assay: Post-emerge herbicidal activity, greenhouse screen, SORHA
# Source text: as §1, §2, §3, §4, §5
# [3] = test system: lambsquarters (Chenopodium album, CHEAL); assay: Post-emerge herbicidal activity, greenhouse screen, CHEAL
# Source text: as §1, §2, §3, §4, §5
# [4] = test system: barnyardgrass (Echinochloa crus-galli, ECHCG); assay: Pre-emerge herbicidal activity, greenhouse screen, ECHCG
# Source text: as §1, §2, §3, §4, §5
# [5] = test system: redroot pigweed (Amaranthus retroflexus, AMARE); assay: Post-emerge herbicidal activity, greenhouse screen, AMARE
# Source text: as §1, §2, §3, §4, §5
# [6] = test system: sicklepod (Cassia obtusifolia, CASOB); assay: Pre-emerge herbicidal activity, greenhouse screen, CASOB
# Source text: as §1, §2, §3, §4, §5
# [7] = test system: large crabgrass (Digitaria sanguinalis, DIGSA); assay: Pre-emerge herbicidal activity, greenhouse screen, DIGSA
# Source text: as §1, §2, §3, §4, §5
# [8] = test system: ivyleaf morningglory (Ipomoea hederacea, IPOHE); assay: Pre-emerge herbicidal activity, greenhouse screen, IPOHE
# Source text: as §1, §2, §3, §4, §5
# [9] = test system: velvetleaf (Abutilon theophrasti, ABUTH); assay: Post-emerge herbicidal activity, greenhouse screen, ABUTH
# Source text: as §1, §2, §3, §4, §5
# [10] = test system: large crabgrass (Digitaria sanguinalis, DIGSA); assay: Post-emerge herbicidal activity, greenhouse screen, DIGSA
# Source text: as §1, §2, §3, §4, §5
# [11] = test system: green foxtail (Setaria viridis, SETVI); assay: Pre-emerge herbicidal activity, greenhouse screen, SETVI
# Source text: as §1, §2, §3, §4, §5
# [12] = test system: ivyleaf morningglory (Ipomoea hederacea, IPOHE); assay: Post-emerge herbicidal activity, greenhouse screen, IPOHE
# Source text: as §1, §2, §3, §4, §5
# [13] = test system: common ragweed (Ambrosia artemisiifolia L., AMBEL); assay: Pre-emerge herbicidal activity, greenhouse screen, AMBEL
# Source text: as §1, §2, §3, §4, §5
# [14] = test system: johnsongrass (Sorghum halepense, SORHA); assay: Pre-emerge herbicidal activity, greenhouse screen, SORHA
# Source text: as §1, §2, §3, §4, §5
# [15] = test system: velvetleaf (Abutilon theophrasti, ABUTH); assay: Pre-emerge herbicidal activity, greenhouse screen, ABUTH
# Source text: as §1, §2, §3, §4, §5
# [16] = test system: common ragweed (Ambrosia artemisiifolia L., AMBEL); assay: Post-emerge herbicidal activity, greenhouse screen, AMBEL
# Source text: as §1, §2, §3, §4, §5
# [17] = test system: redroot pigweed (Amaranthus retroflexus, AMARE); assay: Pre-emerge herbicidal activity, greenhouse screen, AMARE
# Source text: as §1, §2, §3, §4, §5
# [18] = test system: barnyardgrass (Echinochloa crus-galli, ECHCG); assay: Post-emerge herbicidal activity, greenhouse screen, ECHCG
# Source text: as §1, §2, §3, §4, §5
# [19] = test system: sicklepod (Cassia obtusifolia, CASOB); assay: Post-emerge herbicidal activity, greenhouse screen, CASOB
# Source text: as §1, §2, §3, §4, §5
# [20] = test system: green foxtail (Setaria viridis, SETVI); assay: Post-emerge herbicidal activity, greenhouse screen, SETVI
# Source text: as §1, §2, §3, §4, §5
Structure (SMILES),Pre-emerge Herbicidal Activity CHEAL ([1]; 63 g ai/ha),Pre-emerge Herbicidal Activity CHEAL ([1]; 250 g ai/ha),Post-emerge Herbicidal Activity SORHA ([2]; 63 g ai/ha),Post-emerge Herbicidal Activity SORHA ([2]; 250 g ai/ha),Post-emerge Herbicidal Activity CHEAL ([3]; 63 g ai/ha),Post-emerge Herbicidal Activity CHEAL ([3]; 250 g ai/ha),Pre-emerge Herbicidal Activity ECHCG ([4]; 63 g ai/ha),Pre-emerge Herbicidal Activity ECHCG ([4]; 250 g ai/ha),Post-emerge Herbicidal Activity AMARE ([5]; 63 g ai/ha),Post-emerge Herbicidal Activity AMARE ([5]; 250 g ai/ha),Pre-emerge Herbicidal Activity CASOB ([6]; 63 g ai/ha),Pre-emerge Herbicidal Activity CASOB ([6]; 250 g ai/ha),Pre-emerge Herbicidal Activity DIGSA ([7]; 63 g ai/ha),Pre-emerge Herbicidal Activity DIGSA ([7]; 250 g ai/ha),Pre-emerge Herbicidal Activity IPOHE ([8]; 63 g ai/ha),Pre-emerge Herbicidal Activity IPOHE ([8]; 250 g ai/ha),Post-emerge Herbicidal Activity ABUTH ([9]; 63 g ai/ha),Post-emerge Herbicidal Activity ABUTH ([9]; 250 g ai/ha),Post-emerge Herbicidal Activity DIGSA ([10]; 63 g ai/ha),Post-emerge Herbicidal Activity DIGSA ([10]; 250 g ai/ha),also measured
"Cn1c(C(F)(F)F)cc(=O)n(-c2c(F)cc(Cl)c3ncoc23)c1=S [Compound 1-1, 3-(4-chloro-6-fluoro-1,3-benzoxazol-7-yl)-1-methyl-2-thioxo-6-(trifluoromethyl)-2,3-dihydropyrimidin4(1H)-one]",100,100,95,100,100,100,100,100,100,100,100,100,100,100,100,100,100,100,95,99,Pre-emerge Herbicidal Activity SETVI ([11]; 63 g ai/ha): 100; Pre-emerge Herbicidal Activity SETVI ([11]; 250 g ai/ha): 100; Post-emerge Herbicidal Activity IPOHE ([12]; 63 g ai/ha): 100; Post-emerge Herbicidal Activity IPOHE ([12]; 250 g ai/ha): 100; Pre-emerge Herbicidal Activity AMBEL ([13]; 63 g ai/ha): 100; Pre-emerge Herbicidal Activity AMBEL ([13]; 250 g ai/ha): 100; Pre-emerge Herbicidal Activity SORHA ([14]; 63 g ai/ha): 100; Pre-emerge Herbicidal Activity SORHA ([14]; 250 g ai/ha): 100; Pre-emerge Herbicidal Activity ABUTH ([15]; 63 g ai/ha): 100; Pre-emerge Herbicidal Activity ABUTH ([15]; 250 g ai/ha): 100; Post-emerge Herbicidal Activity AMBEL ([16]; 63 g ai/ha): 100; Post-emerge Herbicidal Activity AMBEL ([16]; 250 g ai/ha): 100; Pre-emerge Herbicidal Activity AMARE ([17]; 63 g ai/ha): 100; Pre-emerge Herbicidal Activity AMARE ([17]; 250 g ai/ha): 100; Post-emerge Herbicidal Activity ECHCG ([18]; 63 g ai/ha): 100; Post-emerge Herbicidal Activity ECHCG ([18]; 250 g ai/ha): 100; Post-emerge Herbicidal Activity CASOB ([19]; 63 g ai/ha): 100; Post-emerge Herbicidal Activity CASOB ([19]; 250 g ai/ha): 100; Post-emerge Herbicidal Activity SETVI ([20]; 63 g ai/ha): 100; Post-emerge Herbicidal Activity SETVI ([20]; 250 g ai/ha): 100
"Cc1cc2c(-n3c(=O)cc(C(F)(F)F)n(C)c3=S)c(F)cc(Cl)c2o1 [Compound 2-2, 3-(7-chloro-5-fluoro-2-methyl-1-benzofuran-4-yl)-1-methyl-2-thioxo-6-(trifluoromethyl)-2,3-dihydropyrimidin-4(1H)-one]",100,100,100,100,100,100,99,100,100,100,99,100,100,100,99,99,100,100,85,100,Pre-emerge Herbicidal Activity SETVI ([11]; 63 g ai/ha): 100; Pre-emerge Herbicidal Activity SETVI ([11]; 250 g ai/ha): 100; Post-emerge Herbicidal Activity IPOHE ([12]; 63 g ai/ha): 100; Post-emerge Herbicidal Activity IPOHE ([12]; 250 g ai/ha): 100; Pre-emerge Herbicidal Activity AMBEL ([13]; 63 g ai/ha): 100; Pre-emerge Herbicidal Activity AMBEL ([13]; 250 g ai/ha): 100; Pre-emerge Herbicidal Activity SORHA ([14]; 63 g ai/ha): 100; Pre-emerge Herbicidal Activity SORHA ([14]; 250 g ai/ha): 100; Pre-emerge Herbicidal Activity ABUTH ([15]; 63 g ai/ha): 100; Pre-emerge Herbicidal Activity ABUTH ([15]; 250 g ai/ha): 100; Post-emerge Herbicidal Activity AMBEL ([16]; 63 g ai/ha): 100; Post-emerge Herbicidal Activity AMBEL ([16]; 250 g ai/ha): 100; Pre-emerge Herbicidal Activity AMARE ([17]; 63 g ai/ha): 100; Pre-emerge Herbicidal Activity AMARE ([17]; 250 g ai/ha): 100; Post-emerge Herbicidal Activity ECHCG ([18]; 63 g ai/ha): 100; Post-emerge Herbicidal Activity ECHCG ([18]; 250 g ai/ha): 100; Post-emerge Herbicidal Activity CASOB ([19]; 63 g ai/ha): 100; Post-emerge Herbicidal Activity CASOB ([19]; 250 g ai/ha): 100; Post-emerge Herbicidal Activity SETVI ([20]; 63 g ai/ha): 100; Post-emerge Herbicidal Activity SETVI ([20]; 250 g ai/ha): 100
